The values that follow come from paper PMC11778240, “Synthesis and preclinical evaluation of tigilanol tiglate analogs as latency-reversing agents for the eradication of HIV” (Science Advances, 2025).

One experiment relates to NF-κB pathway. In words: NF-κB activation assay, A549 cells with SEAP reporter. It counts as cell-based, Human. The conditions noted are these: for NF-κB activation, times the basal level (DMSO control) / NF-κB activation in words: 24 hours; for NF-κB activation (optical density, 630 nm): 24 hours after dosing; for NF-κB activation (optical density, 630 nm) / NF-κB activation in words: A549 cells; for NF-κB activation in words: 50 and/or 500 nM. From the text: As a high-throughput method of screening compounds for their ability to get into cells and activate immunological pathways related to HIV latency reversal ([46], [70]), we conducted an NF-κB reporter assay using A549 cells stably integrated with a secreted embryonic alkaline phosphatase reporter under the control of a promoter fused to five NF-κB binding sites (Fig. 7B) ([48], [70], [71]).
Human A549-Dual™ Cells supplied by InvivoGen (Cat. code a549d-nfis) and CHO-K1 cells were passaged when about 90% confluency was reached (approximately every three days). With each passage, media was aspirated from the cell layer, which was then washed with PBS. Following aspiration of the PBS, cells were detached from the culture flask with 0.25% GibcoTM Trypsin-EDTA and transferred to a 50 mL conical, which was volumed up with complete pre-warmed DMEM (4.5 g/L glucose, 10% FBS, and 1% Pen-Strep-Glutamine (100 X, 50 mg/mL)) or Ham's F-12K (Kaighn's) Medium supplemented with 10% FBS and 1% Pen-Strep (100 X, 50 mg/mL).
This conical was spun down at 1800 rpm for 3 minutes, the supernatant was removed, and cells were resuspended in their respective fresh, pre-warmed media. To count cells, 10 μL of resuspended cells were added to a sterile microcentrifuge tube and mixed with 10 μL of trypan blue after which 10 μL of the mixture was pipetted into a Countess chamber slide. A Countess™ 3 Automated Cell Counter was subsequently utilized to determine cell viability and concentration.
1 x 10^6 cells were seeded with each passage into a T75 culture flask, and cells were incubated at […]
Human A549 lung carcinoma cells (InvivoGen Cat. code a549d-nfis), stably integrated with a secreted embryonic alkaline phosphatase (SEAP) reporter, allow for the activity of the NF-κB pathway to be monitored. The SEAP reporter is under control of the interferon β (IFN-β) minimal promoter, which is fused to five NF-κB binding sites.
5 × 10^4 A549 cells were plated on Corning® 96 Well TC-Treated Microplates (CLS3595) in 180 μl of pre-warmed DMEM (4.5 g/L glucose, 10% heat-inactivated FBS (30 min at 56 ℃), and 1% Pen-Strep-Glutamine (100 X, 50 mg/mL)). Note that if cells were grown in media containing FBS that is not heat-inactivated, media will contain alkaline phosphatase. In this case, all supernatant must thoroughly be aspirated from the cell pellet obtained after centrifugation before resuspending cells in media containing heat inactivated FBS for plating. Following incubation at 37 °C in 5% CO2 for approximately 24 hours to allow for cell adherence onto the 96 well plate, 1.8 μL of each compound dissolved in DMSO was added in quadruplicate to their respective wells to achieve a final compound concentration of 1500 nM, 500 nM, or 50 nM. 1.8 μL of DMSO was added to wells as negative controls while wells treated with EBC-46 served as positive controls. 24 hours following compound addition, 180 μL of QUANTI-BlueTM Solution (InvivoGen Cat. code rep-qbs)- medium containing QB buffer and QB Reagent for detection and quantification of alkaline phosphatase- were added into wells on a new clear flat-bottom 96-well plate. 20 μL of supernatant of either SEAP-expressing cells incubated with compound or SEAP-expressing cells incubated with DMSO only were added to the wells in the new 96-well plate containing QUANTI-BlueTM Solution. Supernatant and QUANTI-BlueTM Solution were incubated at 37 °C in 5% CO2 for approximately an hour and a half. Following incubation, optical density (OD) at 630 nm was measured for each well using a BioTek Synergy H1 microplate reader under normal read speed and with a delay of 100 msec.

For the next experiment, the system named is J-Lat clone 10.6 cells. As to the kind of experiment: J-Lat HIV latency reversal assay (GFP expression). The format is cell-based, Human. The conditions noted are these: J-Lat 10.6; ascending concentrations; 48 hours. The text has this: Having shown that our lead compounds bind cell-free PKC isoforms, enter cells, translocate PKC-GFP fusion proteins, and activate NF-κB transcription factors, we next set out to determine whether our analogs were capable of reversing HIV from latency. We performed in vitro assays using T lymphocyte J-Lat clone 10.6, which contains a latent near full-length replication-incompetent integrated HIV DNA genome ([72]). J-Lat 10.6 lacks two viral genes, env and nef, which encode for the envelope protein and an accessory protein, respectively, and thus cannot initiate a spreading HIV infection. The integrated HIV provirus also encodes a GFP reporter gene, allowing latency reversal to be measured by quantification of GFP expression (fig. S1). […] In this latency reversal assay, we quantified GFP expression 48 hours after compound addition and observed bryostatin 1 to be maximally effective at concentrations of 40 nM or higher with latency reversal in 12% of cells (Fig. 8). Given the efficacy of bryostatin 1 as an LRA ([73], [74]), EBC-46 and many of its analogs tested in this J-Lat assay induced latency reversal in >90% of cells. […] SUW427, an esterase-releasable prodrug of EBC-46, also performed similarly to EBC-46 with a maximum efficacy of latency reversal in >90% of cells at a dose of 250 nM. […] The gradual release of EBC-46 from its prodrug form provides an alternative mode of administration that avoids the bolus effect associated with rapid drug administration ([17]). […] This is consistent with its lack of activity in the NF-κB activation assay and its design as a negative control as it is structurally similar to EBC-46 but unable to bind to the C1 domain of PKC at the concentrations used in this assay as it lacks a complete pharmacophore.
HIV latency reversal in-vitro assay
Human T Lymphocyte J-Lat Full Length Cell Line 10.6 (cat #9849) was obtained through the NIH HIV Reagent Program, Division of AIDS, NIAID, NIH and was contributed to the NIH HIV Reagent Program by Dr. Eric Verdin (70). J-Lat 10.6 cells were plated at 5 × 10^5 cells in 180 μL of RF10 media consisting of RPMI media supplemented with 1% Penicillin/Streptomycin and 10% Fetal Bovine Serum (FBS) in 96 -well U -bottom plates. J -Lat 10.6 cells were then stimulated for 48 hr by adding 20 μL of newly designed and synthesized tigilanol tiglate analogs, PKC modulators (bryostatin 1) as our positive control or med ia only (mock) as our negative control. Our negative control was RF10 media as the tigilanol tiglate analogs were freshly diluted with RF10 prior to plating. The final volume was 200 μL per well. Experiments were performed in three independent biological replicates, each completed in technical duplicates (n = 6). After 48 hr stimulation, 96 - well U -bottom plates were centrifuged at 296 RCF for 7 minutes to pellet cells, which were resusp ended in 200 μL of freshly prepared 2% paraformaldehyde (PFA) in PBS. GF P expression was measured 24 -hours post -fixation using the FITC channel on a LSR Fortessa (BD Biosciences) flow cytometer. Data analysis was conducted with FlowJo software version 10.8.1.

Turning to `C/C=C(\C)C(=O)O[C@@H]1[C@@H](C)[C@@]2(O)[C@@H](C=C(CO)C[C@]3(O)C(=O)C(C)=C[C@@H]23)[C@@H]2C(C)(C)[C@]12OC(=O)[C@@H](C)CC` [SUW402], in the experiment with NF-κB pathway (50 nM), the “NF-κB activation, times the basal level (DMSO control)” value was “approximately three” and the “NF-κB activation (optical density, 630 nm)” value is on record as 0.71 optical density, 630 nm. Besides, in the experiment with NF-κB pathway (500 nM), the “NF-κB activation (optical density, 630 nm)” value is 0.63 optical density, 630 nm. In addition, in the experiment with NF-κB pathway, the “NF-κB activation in words” value was “strong activation of NF-κB at higher concentrations but with an inverse dose response”.

In the case of `C/C=C(\C)C(=O)O[C@@H]1[C@@H](C)[C@@]2(O)[C@H]([C@@H]3C(C)(C)[C@]13OC(=O)[C@@H](C)CC)[C@@H]1O[C@]1(CO)[C@@H](O)[C@]1(O)C(=O)C(C)=C[C@H]12` [EBC-46, Tigilanol tiglate], the “NF-κB activation (optical density, 630 nm)” value in the experiment with NF-κB pathway (50 nM) is 0.35 optical density, 630 nm; in the experiment on NF-κB pathway (500 nM), 0.69 optical density, 630 nm. For the same molecule, the “NF-κB activation, times the basal level (DMSO control)” value in the experiment with NF-κB pathway (500 nM) is reported as ~ 2.5 times. Also, the “NF-κB activation in words” value in the experiment with NF-κB pathway was “minimal activation of NF-κB relative to the dimethyl sulfoxide (DMSO) control”.

As for `C/C=C(\C)C(=O)O[C@@H]1[C@@H](C)[C@@]2(O)[C@H]([C@@H]3C(C)(C)[C@]13OC(=O)[C@H](C)CC)[C@@H]1O[C@]1(CO)[C@@H](O)[C@]1(O)C(=O)C(C)=C[C@H]12` [SUW407], the “HIV latency reversal in words” value with J-Lat clone 10.6 cells is given as “required a higher dose than EBC-46 before we detected reversal activity”. Besides, the “NF-κB activation (optical density, 630 nm)” value was 0.42 optical density, 630 nm in the experiment with NF-κB pathway (50 nM) and 0.60 optical density, 630 nm with NF-κB pathway (500 nM). The “NF-κB activation in words” value in the experiment with NF-κB pathway is “comparable activity to EBC-46 at 50 and 500 nM”.

For `CC=C(C)C(=O)OC1C(C)C2(O)C(C3OC3(CO)CC3(O)C(=O)C(C)=CC32)C2C(C)(C)C12OC(=O)C(C)CC` (centres unmarked) [SUW403], in the experiment with J-Lat clone 10.6 cells, the “HIV latency reversal in words” value is “required a higher dose than EBC-46 before we detected reversal activity”. For the same molecule, the “NF-κB activation (optical density, 630 nm)” value with NF-κB pathway (50 nM) is reported as 0.39 optical density, 630 nm; in the experiment on NF-κB pathway (500 nM) it was 0.67 optical density, 630 nm. Further, in the experiment with NF-κB pathway, the “NF-κB activation in words” value was “comparable activity to EBC-46 at 50 and 500 nM”.

Take `CC[C@H](C)C(=O)O[C@@]12[C@H](OC(C)(C)C)[C@@H](C)[C@@]3(O)[C@H]([C@@H]1C2(C)C)[C@@H]1O[C@]1(CO)[C@@H](O)[C@]1(O)C(=O)C(C)=C[C@H]13` [SUW430]: the “HIV latency reversal in words” value with J-Lat clone 10.6 cells is given as “required a higher dose than EBC-46 before we detected reversal activity”. Besides, the “NF-κB activation (optical density, 630 nm)” value in the experiment with NF-κB pathway (50 nM) is given as 0.30 optical density, 630 nm; with NF-κB pathway (500 nM), 0.67 optical density, 630 nm. The “NF-κB activation in words” value with NF-κB pathway is on record as “performed comparably to EBC-46 at both concentrations”.

On to `C/C=C(\C)C(=O)O[C@@H]1[C@@H](C)[C@]2(O)[C@@H]3C=C(C)[C@H](OC(=O)c4ccccc4)[C@@]3(O)[C@H](O)C(CO)=C[C@H]2[C@@H]2C(C)(C)[C@]12OC(=O)[C@@H](C)CC` [SUW422], for which the “HIV latency reversal in words” value with J-Lat clone 10.6 cells is “required a higher dose than EBC-46 before we detected reversal activity”. The “NF-κB activation (optical density, 630 nm)” value in the experiment with NF-κB pathway (50 nM) is reported as 0.26 optical density, 630 nm; with NF-κB pathway (500 nM), 0.36 optical density, 630 nm. Moreover, the “NF-κB activation in words” value in the experiment with NF-κB pathway was “minimal NF-κB activation at both 50 and 500 nM”.

Consider `C/C=C(\C)C(=O)O[C@@H]1[C@@H](C)[C@@]2(O)[C@H]([C@@H]3C(C)(C)[C@]13OC(=O)C1CCC1)[C@@H]1O[C@]1(CO)[C@@H](O)[C@]1(O)C(=O)C(C)=C[C@H]12` [SUW406], for which the “HIV latency reversal in words” value with J-Lat clone 10.6 cells is “required a higher dose than EBC-46 before we detected reversal activity”. In addition, the “NF-κB activation (optical density, 630 nm)” value with NF-κB pathway (50 nM) was 0.38 optical density, 630 nm; in the experiment with NF-κB pathway (500 nM), 0.57 optical density, 630 nm. Besides, the “NF-κB activation in words” value with NF-κB pathway was “comparable activity to EBC-46 at 50 and 500 nM”.

`CC=C(C)C(=O)OC1C(C)C2(O)C(C3OC3(COC)C(O)C3(O)C(=O)C(C)=CC32)C2C(C)(C)C12OC(=O)C(C)CC` (centres unmarked) [SUW426]: the “HIV latency reversal in words” value in the experiment with J-Lat clone 10.6 cells is “did not produce latency reversal at any tested concentration”. Moreover, the “NF-κB activation (optical density, 630 nm)” value with NF-κB pathway (50 nM) was 0.23 optical density, 630 nm; in the experiment on NF-κB pathway (500 nM), 0.23 optical density, 630 nm. In addition, in the experiment with NF-κB pathway, the “NF-κB activation in words” value is given as “did not exhibit NF-κB activation at either concentration tested”.

Turning to `CC[C@H](C)C(=O)O[C@@]12[C@H](OC(=O)N3CCCC3)[C@@H](C)[C@@]3(O)[C@H]([C@@H]1C2(C)C)[C@@H]1O[C@]1(CO)[C@@H](O)[C@]1(O)C(=O)C(C)=C[C@H]13` [SUW424], the “NF-κB activation (optical density, 630 nm)” value is listed as 0.34 optical density, 630 nm in the experiment with NF-κB pathway (50 nM) and 0.34 optical density, 630 nm in the experiment on NF-κB pathway (500 nM). The “NF-κB activation in words” value with NF-κB pathway was “minimal activity in this assay at 50 and 500 nM”.

Take `C/C=C(\C)C(=O)O[C@@H]1[C@@H](C)[C@@]2(O)[C@H]([C@@H]3C(C)(C)[C@]13OC(=O)N1CCCC1)[C@@H]1O[C@]1(CO)[C@@H](O)[C@]1(O)C(=O)C(C)=C[C@H]12` [SUW421]: the “NF-κB activation (optical density, 630 nm)” value with NF-κB pathway (50 nM) is reported as 0.30 optical density, 630 nm; in the experiment with NF-κB pathway (500 nM), 0.31 optical density, 630 nm. Besides, in the experiment on NF-κB pathway, the “NF-κB activation in words” value was “minimal activity in this assay at 50 and 500 nM”.
